From ChEMBL document CHEMBL1201862, “PubChem BioAssay data set” (2004)
Calls of active or inactive are those of the source.

Assays:
[1] = target: Neuropeptides B/W receptor type 1 (Homo sapiens, UniProt P48145); assay: Fluorescence-based dose response cell-based high throughput screening assay to identify antagonists of the G-protein coupled receptor 7 (GPR7). [Related pubchem assays: 1952 (Screening assay (GPR7 antagonists).), 1880 (Summary AID.)]; assay type: functional
[2] = target: Melanin-concentrating hormone receptor 1 (Homo sapiens, UniProt Q99705); assay: Fluorescence-based counterscreen for antagonists of the G-protein coupled receptor 7 (GPR7): cell-based high throughput dose response assay to identify antagonists of the melanin-concentrating hormone receptor 1 (MCHR1).; assay type: functional
[3] = target: T1, Rac GTPase-activating protein 1 (Homo sapiens, UniProt Q9H0H5); assay: MgcRacGAP GTPase-activating activity inhibitors, confirmation, biochemical, ADP Hunter fluorescence, primary and confirmatory (AID 624330); assay type: functional
T1 sequence (Q9H0H5 whole entry): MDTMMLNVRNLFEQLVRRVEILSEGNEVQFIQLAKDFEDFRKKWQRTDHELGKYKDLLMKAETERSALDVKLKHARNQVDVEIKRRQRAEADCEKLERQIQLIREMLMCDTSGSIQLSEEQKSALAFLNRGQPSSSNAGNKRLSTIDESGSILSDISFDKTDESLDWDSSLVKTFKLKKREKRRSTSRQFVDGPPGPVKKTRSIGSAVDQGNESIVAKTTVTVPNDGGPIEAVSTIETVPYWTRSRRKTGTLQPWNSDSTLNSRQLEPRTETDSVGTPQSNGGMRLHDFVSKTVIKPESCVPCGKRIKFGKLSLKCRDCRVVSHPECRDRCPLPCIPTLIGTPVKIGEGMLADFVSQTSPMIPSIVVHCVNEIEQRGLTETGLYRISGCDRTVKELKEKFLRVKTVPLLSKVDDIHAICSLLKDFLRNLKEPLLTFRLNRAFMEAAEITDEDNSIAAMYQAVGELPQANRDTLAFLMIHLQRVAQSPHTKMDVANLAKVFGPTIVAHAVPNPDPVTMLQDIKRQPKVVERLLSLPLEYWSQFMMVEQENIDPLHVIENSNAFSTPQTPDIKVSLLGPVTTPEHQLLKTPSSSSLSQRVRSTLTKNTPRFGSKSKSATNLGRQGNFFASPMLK

[4] = A cytotoxicity screen of small molecule inhibitors of the PhoP region in Salmonella typhi identified in the primary screen. [Related pubchem assays: 1850, 1864, 1985 ]; assay type: functional
[5] = target: T2, Alkaline phosphatase, tissue-nonspecific isozyme (Homo sapiens, UniProt P05186)
T2 sequence (P05186 whole entry): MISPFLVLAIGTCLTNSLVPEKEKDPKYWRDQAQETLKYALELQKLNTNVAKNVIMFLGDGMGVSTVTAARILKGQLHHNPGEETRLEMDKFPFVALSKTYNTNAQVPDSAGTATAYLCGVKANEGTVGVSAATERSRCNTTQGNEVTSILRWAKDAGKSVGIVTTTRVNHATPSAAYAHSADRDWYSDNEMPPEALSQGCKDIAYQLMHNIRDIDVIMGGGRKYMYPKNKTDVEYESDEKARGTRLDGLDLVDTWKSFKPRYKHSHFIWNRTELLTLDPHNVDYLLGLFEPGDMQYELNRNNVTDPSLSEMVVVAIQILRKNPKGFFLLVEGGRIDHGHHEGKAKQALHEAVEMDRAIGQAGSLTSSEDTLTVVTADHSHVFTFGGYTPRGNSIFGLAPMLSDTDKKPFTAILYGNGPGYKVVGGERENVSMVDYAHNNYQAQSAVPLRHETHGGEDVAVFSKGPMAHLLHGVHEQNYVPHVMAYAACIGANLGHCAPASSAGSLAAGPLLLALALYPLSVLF

[6] = target: Peroxisome proliferator-activated receptor gamma/Nuclear receptor coactivator 3 (Homo sapiens, UniProt P37231); assay: TR-FRET dose response biochemical High Throughput Screening assay for agonists of the steroid receptor coactivator 3 (SRC-3) recruitment by the peroxisome proliferator-activated receptor gamma (PPAR gamma): non-selective agonists. [Related pubchem assays: 1301 (Confirmation screen.), 1048 (Primary screen.)]; assay type: functional
[7] = target: Photoreceptor-specific nuclear receptor (Homo sapiens, UniProt Q9Y5X4); assay type: functional;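 also: potency for compounds that break the NR2E3 corepressor complex and count as activators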
[8] = target: Peroxisome proliferator-activated receptor gamma/Nuclear receptor coactivator 2 (Homo sapiens, UniProt P37231); assay: (§1) TR-FRET dose response biochemical High Throughput Screening assay for agonists of the steroid receptor coactivator 2 (SRC-2) recruitment by the peroxisome proliferator-activated receptor gamma (PPAR gamma): non-selective agonists. [Related pubchem assays: 1297, 1032 ]; assay type: functional
[9] = target: Peroxisome proliferator-activated receptor gamma/Nuclear receptor corepressor 2 (Homo sapiens, UniProt P37231+Q9Y618); assay type: functional
[10] = target: Peroxisome proliferator-activated receptor gamma/Nuclear receptor coactivator 1 (Homo sapiens, UniProt P37231); assay: as §1, with “1 (SRC-1)” for “2 (SRC-2)”, “assays (depositor defined):AID1300, AID1808, AID504735, AID631]” for “assays: 1297, 1032 ]”; assay type: protein assay
[11] = target: T3, Dual specificity protein phosphatase 6 (Rattus norvegicus, UniProt Q64346); assay type: functional
T3 sequence (Q64346 whole entry): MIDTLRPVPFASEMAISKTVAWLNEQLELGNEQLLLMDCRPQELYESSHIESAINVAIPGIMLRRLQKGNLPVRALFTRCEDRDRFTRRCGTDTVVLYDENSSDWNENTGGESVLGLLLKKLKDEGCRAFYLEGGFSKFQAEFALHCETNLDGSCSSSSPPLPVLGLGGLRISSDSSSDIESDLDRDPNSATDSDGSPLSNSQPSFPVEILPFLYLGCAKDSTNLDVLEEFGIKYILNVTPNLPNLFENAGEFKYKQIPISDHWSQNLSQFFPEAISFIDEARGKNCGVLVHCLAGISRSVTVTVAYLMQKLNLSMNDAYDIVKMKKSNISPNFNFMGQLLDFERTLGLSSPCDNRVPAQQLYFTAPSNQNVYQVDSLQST

[12] = target: T4, Tyrosine-protein phosphatase non-receptor type 7 (Homo sapiens, UniProt P35236); assay type: functional
T4 sequence (P35236 whole entry): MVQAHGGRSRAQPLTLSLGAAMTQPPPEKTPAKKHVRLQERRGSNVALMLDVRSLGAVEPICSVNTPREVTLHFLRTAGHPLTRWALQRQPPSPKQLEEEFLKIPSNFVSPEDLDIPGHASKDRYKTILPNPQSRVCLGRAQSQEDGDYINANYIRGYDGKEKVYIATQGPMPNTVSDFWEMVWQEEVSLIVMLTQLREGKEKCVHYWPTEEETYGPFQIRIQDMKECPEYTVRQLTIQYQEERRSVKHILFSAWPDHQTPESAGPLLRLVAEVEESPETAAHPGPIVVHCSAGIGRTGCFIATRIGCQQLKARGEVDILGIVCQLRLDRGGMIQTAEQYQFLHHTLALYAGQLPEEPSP

[13] = target: T3, Dual specificity protein phosphatase 6
[14] = target: Glyceraldehyde-3-phosphate dehydrogenase (Homo sapiens, UniProt P04406)
BJ [15] = assay: cytotoxicity toward BJ-TERT fibroblasts, dose response, cell-based, RAS-independent, luminescence (AID 1933); assay type: functional; conditions: Homo sapiens
[16] = cytotoxicity in MIN6 insulinoma cells, dose response, cytotoxicity control, cell-based, mouse insulinoma (AID 2122); assay type: functional;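 also: confirmatory high-throughput counterscreen run to flag cytotoxic compounds; mouse MIN-6 beta cells carrying an insulin promoter eGFP reporter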
Streptococcus = assay: Group A Streptococcus viability loss, dose response, counter-screen for streptokinase expression inhibitor project, luminescence, BacTiterGlo (AID 1915); assay type: functional, organism-based;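 also: potency for reduction of bacterial viability or growth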
[17] = target: T5, Serine/threonine-protein phosphatase (Homo sapiens, UniProt Q9BPW0); assay: Counterscreen for inhibitors of PP1: fluorescence-based biochemical high throughput dose response assay to identify inhibitors of Protein Phosphatase 5 (PP5). [Related pubchem assays: 2034 (Summary (PP5 inhibitors)), 1987 (PP5 inhibitors in singlate), 2235 (PP1 inhibitors in singlate)]
T5 sequence (Q9BPW0 whole entry): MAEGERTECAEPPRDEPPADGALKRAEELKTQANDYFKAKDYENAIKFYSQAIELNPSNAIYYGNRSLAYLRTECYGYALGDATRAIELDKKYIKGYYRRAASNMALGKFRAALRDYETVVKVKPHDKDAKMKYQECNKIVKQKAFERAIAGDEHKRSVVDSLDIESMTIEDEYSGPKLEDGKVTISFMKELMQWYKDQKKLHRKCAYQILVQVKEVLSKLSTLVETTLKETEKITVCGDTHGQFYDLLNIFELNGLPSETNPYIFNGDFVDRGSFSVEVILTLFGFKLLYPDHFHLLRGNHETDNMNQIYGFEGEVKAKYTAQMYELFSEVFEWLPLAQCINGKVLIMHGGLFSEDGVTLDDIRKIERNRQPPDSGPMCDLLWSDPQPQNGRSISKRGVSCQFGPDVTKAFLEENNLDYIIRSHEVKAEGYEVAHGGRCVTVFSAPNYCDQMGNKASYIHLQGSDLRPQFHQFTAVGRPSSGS

[18] = Luminescent dose response cell-based high throughput screening assay for inhibitors of the Janus kinase 2 mutant JAK2V617F. [Related pubchem assays: 1446 (Primary screen.), 1521 (Confirmation assay.), 1486 (Counter screen.)]; assay type: functional
[19] = test system: Streptococcus sp. 'group A'; assay: growth inhibition of control SK(-) GAS strain, dose response, counter-screen for streptokinase expression inhibitor project, luminescence, kanamycin, BacTiterGlo, confirmation (AID 1900); assay type: functional, organism-based
[20] = target: Serine/threonine-protein phosphatase PP1-alpha catalytic subunit (Homo sapiens, UniProt P62136); assay: PP1 phosphatase inhibitors, dose response, biochemical, fluorescence (AID 2403);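 also: phosphatase turnover of OMFP into fluorescent 3-O-methylfluorescein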
BJ [21] = assay: cells; assay type: functional, cell-based; conditions: Homo sapiens
[22] = insulin promoter down-regulators in MIN6 cells, imaging, high-content screening, mouse beta cells (AID 1628); assay type: functional
INS1 = assay: beta cell apoptosis inhibitors, cytokine rescue, dose response, luminescence, retest (AID 449756); assay type: functional, cell-based; conditions: Rattus norvegicus;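 also: cell death triggered by IL-1 beta plus TNF-alpha plus IFN-gamma mixture; protective hits raise ATP signal compared with cytokine alone wells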
HEK293 = assay: inhibitors of LMP1-driven NF-kB reporter, dose response, cell-based, HEK293, luciferase, cherry-pick (AID 588343); assay type: functional; conditions: Homo sapiens
[23] = cytotoxicity toward DRD oncogenic fibroblasts, dose response, cell-based, non-viral oncogenic, luminescence (AID 1934); assay type: functional; conditions: Homo sapiens
[24] = AlphaScreen signal interference compounds, dose response, artefact control for ARNT-TACC3 interaction inhibitor project, biochemical, luminescence, cherry-pick (AID 651705); assay type: functional;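 also: AlphaScreen bead proximity signal that flags compounds interfering with the detection technology; potency reflects signal decrease which marks the compound as an assay artifact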
BJ [25] = assay: cytotoxicity toward BJ-TERT-LT-ST fibroblasts, dose response, cell-based, RAS-independent, luminescence (AID 1935); assay type: functional; conditions: Homo sapiens;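 also: BJ fibroblasts immortalized with TERT plus LT and ST oncogenes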
Cytochrome P450 2D6 = Cytochrome P450 2D6 (Homo sapiens, UniProt P10635); assay: qHTS Assay for Inhibitors and Substrates of Cytochrome P450 2D6. [Related pubchem assays: 410 ]; assay type: ADME; conditions: read-out: Potency
Streptokinase A = target: T6, Streptokinase A (Streptococcus pyogenes serotype M1, UniProt P10520); assay: S. pyogenes streptokinase expression inhibitors, potency, dose response, plasminogen activation absorbance, OD405 (AID 1914); assay type: functional, Streptococcus pyogenes M1 GAS;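 also: secreted streptokinase activity via plasminogen activation per viability signal from cell pellet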
T6 sequence (P10520 whole entry): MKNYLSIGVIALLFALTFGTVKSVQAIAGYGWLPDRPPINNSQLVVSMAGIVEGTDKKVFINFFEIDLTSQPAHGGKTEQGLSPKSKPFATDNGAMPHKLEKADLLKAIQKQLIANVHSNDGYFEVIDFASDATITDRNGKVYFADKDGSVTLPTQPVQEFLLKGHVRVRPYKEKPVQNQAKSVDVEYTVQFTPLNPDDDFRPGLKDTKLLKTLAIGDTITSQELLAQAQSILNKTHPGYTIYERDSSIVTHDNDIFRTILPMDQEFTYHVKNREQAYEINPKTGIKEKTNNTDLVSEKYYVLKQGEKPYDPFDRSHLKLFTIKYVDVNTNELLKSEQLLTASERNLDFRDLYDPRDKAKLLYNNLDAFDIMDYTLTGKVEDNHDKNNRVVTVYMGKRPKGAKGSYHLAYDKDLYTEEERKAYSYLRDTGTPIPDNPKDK

Wee1-like protein kinase = Wee1-like protein kinase (Homo sapiens, UniProt P30291); assay: Dose Response Cell-based Assay for Inhibitors of Wee1 Degradation. [Related pubchem assays: 1410, 1321 ]; assay type: functional
[26] = target: G2/mitotic-specific cyclin-B1 (Homo sapiens, UniProt P14635); assay: Counterscreen assay for inhibitors of Wee1 degradation: dose response cell-based assay to identify inhibitors of cyclin B degradation. [Related pubchem assays: 1410, 1321 ]; assay type: functional
G2/mitotic-specific cyclin-B1, sequence (P14635 whole entry): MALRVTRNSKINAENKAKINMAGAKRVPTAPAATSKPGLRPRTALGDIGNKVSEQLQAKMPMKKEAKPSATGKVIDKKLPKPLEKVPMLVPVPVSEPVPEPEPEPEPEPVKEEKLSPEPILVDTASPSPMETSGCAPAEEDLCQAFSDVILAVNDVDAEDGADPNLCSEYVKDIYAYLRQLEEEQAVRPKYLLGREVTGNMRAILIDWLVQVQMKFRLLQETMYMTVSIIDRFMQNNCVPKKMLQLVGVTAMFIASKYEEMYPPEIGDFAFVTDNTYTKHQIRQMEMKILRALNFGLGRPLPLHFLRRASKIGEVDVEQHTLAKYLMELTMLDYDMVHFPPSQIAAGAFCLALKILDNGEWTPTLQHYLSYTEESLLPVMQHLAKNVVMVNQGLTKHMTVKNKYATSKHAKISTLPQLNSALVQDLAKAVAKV

Glyceraldehyde-3-phosphate dehydrogenase, sequence (P04406 whole entry): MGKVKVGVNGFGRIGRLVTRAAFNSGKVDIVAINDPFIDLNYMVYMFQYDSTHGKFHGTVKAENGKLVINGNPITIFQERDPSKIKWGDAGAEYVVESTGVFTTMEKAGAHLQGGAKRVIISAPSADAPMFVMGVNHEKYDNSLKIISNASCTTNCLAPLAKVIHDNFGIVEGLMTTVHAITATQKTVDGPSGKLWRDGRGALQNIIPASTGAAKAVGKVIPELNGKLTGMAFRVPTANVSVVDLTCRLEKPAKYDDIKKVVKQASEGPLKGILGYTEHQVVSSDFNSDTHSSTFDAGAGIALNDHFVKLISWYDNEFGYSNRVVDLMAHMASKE
Wee1-like protein kinase, sequence (P30291 whole entry): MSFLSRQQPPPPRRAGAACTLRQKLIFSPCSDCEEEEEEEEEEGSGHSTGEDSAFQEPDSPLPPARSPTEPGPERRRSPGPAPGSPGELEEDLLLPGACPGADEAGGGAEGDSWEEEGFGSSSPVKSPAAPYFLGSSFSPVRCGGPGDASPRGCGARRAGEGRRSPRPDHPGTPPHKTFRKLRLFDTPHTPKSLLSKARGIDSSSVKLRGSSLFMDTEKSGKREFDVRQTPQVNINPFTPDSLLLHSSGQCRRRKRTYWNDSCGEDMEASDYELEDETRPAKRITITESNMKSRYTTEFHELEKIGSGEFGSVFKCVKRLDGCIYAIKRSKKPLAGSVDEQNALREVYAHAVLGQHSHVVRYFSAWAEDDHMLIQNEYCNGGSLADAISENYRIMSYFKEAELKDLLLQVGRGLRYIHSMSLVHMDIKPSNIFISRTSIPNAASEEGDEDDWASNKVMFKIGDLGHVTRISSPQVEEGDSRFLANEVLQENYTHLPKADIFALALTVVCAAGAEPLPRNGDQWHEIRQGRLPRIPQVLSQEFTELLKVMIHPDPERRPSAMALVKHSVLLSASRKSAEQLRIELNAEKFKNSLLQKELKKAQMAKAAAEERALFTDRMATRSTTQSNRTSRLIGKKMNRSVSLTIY
Photoreceptor-specific nuclear receptor, sequence (Q9Y5X4 whole entry): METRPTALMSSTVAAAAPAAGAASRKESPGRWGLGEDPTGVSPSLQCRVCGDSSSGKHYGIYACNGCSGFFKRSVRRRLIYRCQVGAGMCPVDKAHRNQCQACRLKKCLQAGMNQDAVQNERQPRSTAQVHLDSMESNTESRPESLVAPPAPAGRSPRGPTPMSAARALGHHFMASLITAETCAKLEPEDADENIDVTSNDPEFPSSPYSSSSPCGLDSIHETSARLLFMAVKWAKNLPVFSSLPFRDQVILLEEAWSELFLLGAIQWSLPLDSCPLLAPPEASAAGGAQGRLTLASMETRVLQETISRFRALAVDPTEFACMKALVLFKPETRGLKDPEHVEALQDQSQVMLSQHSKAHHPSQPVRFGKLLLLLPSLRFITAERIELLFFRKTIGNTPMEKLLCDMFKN
Serine/threonine-protein phosphatase PP1-alpha catalytic subunit, sequence (P62136 whole entry): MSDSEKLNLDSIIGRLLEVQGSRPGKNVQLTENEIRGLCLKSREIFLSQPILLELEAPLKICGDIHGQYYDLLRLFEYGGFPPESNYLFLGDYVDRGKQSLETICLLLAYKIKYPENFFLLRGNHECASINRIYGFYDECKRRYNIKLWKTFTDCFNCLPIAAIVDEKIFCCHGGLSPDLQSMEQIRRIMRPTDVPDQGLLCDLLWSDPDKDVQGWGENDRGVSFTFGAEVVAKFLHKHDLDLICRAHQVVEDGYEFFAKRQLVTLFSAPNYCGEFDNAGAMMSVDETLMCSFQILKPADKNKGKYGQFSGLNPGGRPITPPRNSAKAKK
Peroxisome proliferator-activated receptor gamma/Nuclear receptor coactivator 1, sequence (P37231 whole entry): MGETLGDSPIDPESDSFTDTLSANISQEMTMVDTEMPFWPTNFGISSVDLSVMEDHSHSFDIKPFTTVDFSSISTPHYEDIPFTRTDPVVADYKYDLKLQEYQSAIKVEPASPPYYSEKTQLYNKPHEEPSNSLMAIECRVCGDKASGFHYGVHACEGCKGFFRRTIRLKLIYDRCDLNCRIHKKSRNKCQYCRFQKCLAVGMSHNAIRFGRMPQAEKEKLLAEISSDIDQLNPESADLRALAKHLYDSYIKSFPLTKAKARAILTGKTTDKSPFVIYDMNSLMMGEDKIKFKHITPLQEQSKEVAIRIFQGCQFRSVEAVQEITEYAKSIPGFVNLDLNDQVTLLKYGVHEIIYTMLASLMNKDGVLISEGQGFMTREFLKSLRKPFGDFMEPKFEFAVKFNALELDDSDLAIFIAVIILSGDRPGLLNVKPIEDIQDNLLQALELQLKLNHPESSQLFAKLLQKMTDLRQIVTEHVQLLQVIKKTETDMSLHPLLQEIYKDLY
Peroxisome proliferator-activated receptor gamma/Nuclear receptor coactivator 1, sequence (Q15788 whole entry, further chain): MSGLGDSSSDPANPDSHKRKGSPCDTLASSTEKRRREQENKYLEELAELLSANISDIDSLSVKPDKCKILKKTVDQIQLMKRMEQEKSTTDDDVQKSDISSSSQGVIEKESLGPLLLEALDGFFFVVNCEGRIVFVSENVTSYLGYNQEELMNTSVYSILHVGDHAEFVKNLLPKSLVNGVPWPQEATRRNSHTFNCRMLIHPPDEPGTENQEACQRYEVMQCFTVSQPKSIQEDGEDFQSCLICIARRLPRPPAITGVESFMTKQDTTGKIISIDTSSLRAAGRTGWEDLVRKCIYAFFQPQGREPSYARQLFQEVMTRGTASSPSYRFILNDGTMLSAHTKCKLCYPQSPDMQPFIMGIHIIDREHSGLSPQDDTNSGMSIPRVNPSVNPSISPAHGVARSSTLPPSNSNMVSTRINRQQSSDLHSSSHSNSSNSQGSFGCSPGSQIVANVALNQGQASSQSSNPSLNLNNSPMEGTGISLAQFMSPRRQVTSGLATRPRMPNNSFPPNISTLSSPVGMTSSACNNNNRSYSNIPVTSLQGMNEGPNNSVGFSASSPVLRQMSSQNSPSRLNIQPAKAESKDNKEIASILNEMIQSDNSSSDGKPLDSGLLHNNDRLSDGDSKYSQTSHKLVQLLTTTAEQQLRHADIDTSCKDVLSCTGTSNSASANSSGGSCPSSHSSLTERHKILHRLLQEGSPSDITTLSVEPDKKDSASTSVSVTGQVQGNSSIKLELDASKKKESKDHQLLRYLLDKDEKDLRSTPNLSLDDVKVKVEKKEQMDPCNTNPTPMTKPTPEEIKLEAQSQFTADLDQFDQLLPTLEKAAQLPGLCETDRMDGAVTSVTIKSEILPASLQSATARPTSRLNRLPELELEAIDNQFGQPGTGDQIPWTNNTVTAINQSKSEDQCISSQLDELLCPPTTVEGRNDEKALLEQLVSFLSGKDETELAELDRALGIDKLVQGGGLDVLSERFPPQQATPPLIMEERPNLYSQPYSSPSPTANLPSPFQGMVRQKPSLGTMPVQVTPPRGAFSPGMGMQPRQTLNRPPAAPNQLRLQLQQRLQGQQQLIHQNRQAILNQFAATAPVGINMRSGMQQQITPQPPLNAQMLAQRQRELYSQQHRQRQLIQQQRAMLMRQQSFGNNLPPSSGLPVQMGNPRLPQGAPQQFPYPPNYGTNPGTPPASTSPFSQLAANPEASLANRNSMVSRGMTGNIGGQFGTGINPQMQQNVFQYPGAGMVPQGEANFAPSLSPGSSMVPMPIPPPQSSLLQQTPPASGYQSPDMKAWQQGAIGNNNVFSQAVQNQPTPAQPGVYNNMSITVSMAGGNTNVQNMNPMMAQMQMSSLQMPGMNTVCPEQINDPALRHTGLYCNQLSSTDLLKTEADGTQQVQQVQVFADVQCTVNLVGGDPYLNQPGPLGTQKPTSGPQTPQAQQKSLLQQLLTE
Cytochrome P450 2D6, sequence (P10635 whole entry): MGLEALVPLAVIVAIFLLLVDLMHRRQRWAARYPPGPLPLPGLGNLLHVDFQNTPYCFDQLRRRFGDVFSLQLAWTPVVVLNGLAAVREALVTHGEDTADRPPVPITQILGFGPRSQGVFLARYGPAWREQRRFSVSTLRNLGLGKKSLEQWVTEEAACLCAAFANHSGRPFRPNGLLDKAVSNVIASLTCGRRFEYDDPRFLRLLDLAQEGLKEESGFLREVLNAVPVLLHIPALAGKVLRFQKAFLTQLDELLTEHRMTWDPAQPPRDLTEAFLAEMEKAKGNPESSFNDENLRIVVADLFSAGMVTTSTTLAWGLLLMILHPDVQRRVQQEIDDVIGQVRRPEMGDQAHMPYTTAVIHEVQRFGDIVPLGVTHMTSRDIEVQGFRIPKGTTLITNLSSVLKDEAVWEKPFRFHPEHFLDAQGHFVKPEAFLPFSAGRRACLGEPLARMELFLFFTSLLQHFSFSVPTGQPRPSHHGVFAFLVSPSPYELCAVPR
Melanin-concentrating hormone receptor 1, sequence (Q99705 whole entry): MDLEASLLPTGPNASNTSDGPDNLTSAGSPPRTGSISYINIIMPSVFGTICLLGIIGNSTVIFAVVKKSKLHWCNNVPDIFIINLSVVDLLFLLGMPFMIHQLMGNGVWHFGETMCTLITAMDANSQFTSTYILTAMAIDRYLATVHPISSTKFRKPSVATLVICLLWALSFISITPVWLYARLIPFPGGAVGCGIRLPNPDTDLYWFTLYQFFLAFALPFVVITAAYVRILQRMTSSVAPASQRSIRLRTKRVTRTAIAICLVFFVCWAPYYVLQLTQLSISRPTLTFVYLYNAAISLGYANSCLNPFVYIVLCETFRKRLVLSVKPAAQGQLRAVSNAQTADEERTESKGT

CCOc1ccccc1NC(=O)C(NCC1(N2CCCCC2)CCCCC1)c1ccccc1 (stereo not drawn)
IC50 [1]: > 14.6 µM (not active)
IC50 [2]: > 14.6 µM (not active)
IC50 [3]: 139 µM (active)

Cc1ccn2cc(C(=O)Nc3nnc(C)s3)nc2c1
EC50 [4]: > 50 µM (active)
EC50 [5]: > 100 µM (not active)

CCN(CC)CCCN1C(=O)C(O)=C(C(=O)c2cc3ccccc3o2)C1c1ccccn1 (stereo not drawn)
EC50 [6]: > 79.4 µM (not active)
IC50 [7]: > 39.8 µM (not active)
EC50 [8]: 35.7 µM (not active)
IC50 [9]: 4.13 µM (active)
EC50 [10]: > 79.4 µM (inactive)

Cc1cc(NC(=O)c2cccs2)no1
IC50 [11]: > 100 µM (inactive)
IC50 [12]: > 100 µM (not active)
IC50 [13]: > 100 µM (inactive)
IC50 [14]: 50.1 µM (active)

c1ccc(CCNc2nc(-c3ccccn3)nc3ccccc23)cc1
EC50 (BJ [15]): 3.18 µM (active)
IC50 [16]: 1.21 µM (active)
EC50 (Streptococcus): 2.33 µM (active)
IC50 [17]: 49.3 µM (not active)
IC50 [18]: 1.77 µM (active)
EC50 [19]: 0.916 µM (active)
IC50 [20]: 6.27 µM (active)
EC50 (BJ [21]): 28.9 µM (active)
IC50 [22]: 1.96 µM (active)
AC50 (INS1): 1.63 µM (active)
AC50 (HEK293): 1.24 µM (active)
EC50 [23]: 15.9 µM (inconclusive)
AC50 [24]: 125 µM (active)
EC50 (BJ [25]): 51.1 µM (inconclusive)

COc1cccc2oc(-c3ccc(O)cc3)cc(=O)c12
AC50 (Cytochrome P450 2D6): 15.8 µM (inconclusive)

O=C(Nc1ccc(Cl)c(Cl)c1)Nc1nccs1
EC50 (BJ [15]): 3.87 µM (active)
EC50 (Streptococcus): 15.4 µM (active)
EC50 (Streptokinase A): > 150 µM (not active)
EC50 (Wee1-like protein kinase): > 49.7 µM (not active)
EC50 [19]: 8.23 µM (active)
EC50 (BJ [21]): 46.2 µM (active)
EC50 [26]: > 49.7 µM (not active)
EC50 [23]: 3.33 µM (active)
EC50 (BJ [25]): 3.25 µM (inconclusive)
